These results are taken from patent publication US20180305345A1 (priority 2015, published 2018).

For one assay, the system named is VSVΔ51 in 786-0 cells. The class given is cell-based, human.
The subject of assay [1] is VSVΔ51-resistant HT29 cells (human colon carcinoma). Details: species or system Balb/c mice. As to conditions: in vivo.

As for `O=C1OC(c2ccccc2)C(Cl)=C1Cl` (stereo not shown) [Compound 1, 3,4-dichloro-5-phenyl-2,5-dihydrofuran-2-one, reference compound], the “effect on viral growth after removal of compound at various times” value in the assay with VSVΔ51 in 786-0 cells was “rapid and sustained”.
Consider `O=C1C(Cl)=C(Cl)C(O)N1Cc1ccccc1` (stereo not drawn) [Compound 10, α,β-dichloro-γ-hydroxy-N-benzyl-crotonic lactam], for which the “effect on viral growth after removal of compound at various times” value in the assay with VSVΔ51 in 786-0 cells was “rapid and sustained”.
In the case of `O=C1C(Cl)=C(Cl)C(O)N1CCN1CCOCC1` (stereo not shown) [Compound 28, 3,4-dichloro-5-hydroxy-1-(2-morpholinoethyl)-1H-pyrrol-2(5H)-one], the mouse survival result in assay [1] is reported as “increased mouse survival rates”. Further, in assay [1] (mouse), the tumor growth entry is “reduced tumor growth”.
